The source made the active and inactive calls. The rule behind the calls is not given here.
Species: Homo sapiens
Test: Cytotoxicity against human ER negative MCF10CA1a cells assessed as growth inhibition after 3 days by [3H]thymidine incorporation assay
Assay type: functional, cell-based
Settings: tested as the 2H-labelled form

Compound	growth inhibition (GI)
CC(C)(O)CCCC(CCCC(C)(C)O)[C@H]1CC[C@H]2/C(=C/C=C3C[C@@H](O)C[C@H](O)C3)CCC[C@]12C	Active
C=C1/C(=C\C=C2/CCC[C@]3(C)[C@@H](C(CCCC(C)(C)O)CCCC(C)(C)O)CC[C@@H]23)C[C@@H](O)C[C@@H]1O	Active
